Test results from paper PMC11118832 (Biomolecules, 2024).
Square brackets hold non-standard residues; d marks the D form. Peptide text beside a SMILES is read from it. NMeY = CN[C@@H](Cc1ccc(O)cc1)C(=O)O; hLeu = CC(C)CC[C@H](N)C(=O)O; NMeA = CN[C@@H](C)C(=O)O; Nle = CCCC[C@H](N)C(=O)O; Orn = NCCC[C@H](N)C(=O)O

target: T1, PD-1/PD-L1 (Homo sapiens, UniProt Q15116); assay: In vitro time-resolved FRET PD-1/PD-L1 binding assay (CisBio kit); conditions: CisBio PD-1/PD-L1 binding kit, TR FRET, 96-well, 4-fold serial dilutions in triplicate, freshly dissolved peptides; read-out: IC50, inhibition of PD-1/PD-L1 binding (TR FRET assay)
T1 construct: this kit uses ectodomains of PD-1 and PD-L1 that are expressed with orthogonal fusion tags (Tag-1 and Tag-2); purchased CisBio (currently Perkin-Elmer, Bedford, MA)
Description: Commercial PD-1/PD-L1 binding assay kit (CisBio, currently Perkin-Elmer, Bedford, MA) for time resolve fluorescent energy transfer (FRET) was used to assess peptides binding to PD-1. The assay for peptide screening was performed in a 96-well format (normal pressure), starting with 4-fold serial dilutions of each peptide in triplicate. No-peptide triplicate wells were used to assess fluorescent energy transfer in the absence of inhibition, and no-PD-1/PD-L1 triplicate wells were used to assess the background fluorescent energy transfer in the absence of PD-1/PD-L1 complexes. More detailed concentration dependences were obtained for selected peptides. Only freshly dissolved peptides were used in the assay. Various QSAR (quantitative structure activity relationship) hypotheses were tested by synthesizing batches of 10–12 peptides. In total, over one hundred candidates in ten iterations were screened for their ability to inhibit in vitro PD-1/PD-L1 binding using the commercial PD-1/PD-L1 binding assay kit (CisBio, currently Perkin-Elmer). Briefly, this kit uses ectodomains of PD-1 and PD-L1 that are expressed with orthogonal fusion tags (Tag-1 and Tag-2). It also includes two antibodies to selectively interact with these tags. The antibody against one tag is labeled with fluorescent moiety, which serves as a donor, while the other antibody is labeled with fluorescent moiety, which serves as an acceptor in fluorescent resonance energy transfer (FRET). When the complex is formed and probed with both anti-Tag-1 and anti-Tag-2 antibodies, donor and acceptor are sufficiently close, and FRET can be detected in a time-resolved (TR) manner. Inhibitors of PD-1/PD-L1 interactions prevent complex formation, leading to a decrease in TR FRET in a concentration-dependent manner, as shown in Figure 2 for four representative peptide inhibitors. Initial fourfold dilutions are exemplified by data for peptides B5.11 and B5.6 (panels A and B); examples of the more detailed follow-up concentration dependences are shown for peptides B2.4 and B2.22 (panels C and D). The potency of the inhibitors is then characterized by IC50, a concentration that inhibits TR FRET by 50%, allowing for a facile comparison of different inhibitors (Figure 2E).

IC50 [µM]	Structure (SMILES)
0.5	CCCC[C@H](NC(=O)[C@@H](NC(=O)[C@H](CCCNC(=N)N)NC(C)=O)C(C)C)C(=O)N[C@H](C(=O)N[C@H](C(=O)N[C@H](C(=O)NCC(=O)N[C@@H](C)C(=O)N[C@@H](C)C(=O)N[C@@H](Cc1c[nH]c2ccccc12)C(=O)N[C@@H](CC(=O)O)C(=O)N[C@@H](Cc1ccc(O)cc1)C(=O)N[C@@H](CCCCN)C(=O)N[C@@H](Cc1ccc(O)cc1)C(N)=O)C(C)C)[C@@H](C)CC)C(C)C [B2.4] (Ac-RV[Nle]VIVGAAWDYKY-NH2)

same assay, conditions: CisBio PD-1/PD-L1 binding kit, TR FRET, 96-well, serial dilutions in triplicate; NI = no inhibition at maximum concentration tested (* 5 μM, ** 50 μM); read-out: EC50 (Supplementary Table S1; inhibition of PD-1/PD-L1 binding by in vitro TR-FRET assay)

EC50 [µM]	Structure (SMILES)
0.5	CCCC[C@H](NC(=O)[C@@H](NC(=O)[C@H](CCCNC(=N)N)NC(C)=O)C(C)C)C(=O)N[C@H](C(=O)N[C@H](C(=O)N[C@H](C(=O)NCC(=O)N[C@@H](C)C(=O)N[C@@H](C)C(=O)N[C@@H](Cc1c[nH]c2ccccc12)C(=O)N[C@@H](CC(=O)O)C(=O)N[C@@H](Cc1ccc(O)cc1)C(=O)N[C@@H](CCCCN)C(=O)N[C@@H](Cc1ccc(O)cc1)C(N)=O)C(C)C)[C@@H](C)CC)C(C)C [B2.4] (Ac-RV[Nle]VIVGAAWDYKY-NH2)
11	CCCC[C@H](NC(C)=O)C(=O)N[C@H](C(=O)N[C@@H](CC(C)C)C(=O)N[C@H](C(=O)N[C@H](C(=O)N[C@H](C(=O)NCC(=O)N[C@@H](C)C(=O)N[C@@H](C)C(=O)N[C@@H](Cc1c[nH]c2ccccc12)C(=O)N[C@@H](CC(=O)O)C(=O)N[C@@H](Cc1ccc(O)cc1)C(=O)N[C@@H](CCCCN)C(=O)N[C@@H](CCCNC(=N)N)C(N)=O)C(C)C)[C@@H](C)CC)C(C)C)C(C)C [B2.5] (Ac-[Nle]VLVIVGAAWDYKR-NH2)
1	CCCC[C@H](NC(C)=O)C(=O)N[C@H](C(=O)N[C@@H](CC(C)C)C(=O)N[C@H](C(=O)N[C@H](C(=O)N[C@H](C(=O)NCC(=O)N[C@@H](C)C(=O)N[C@@H](C)C(=O)N[C@@H](Cc1c[nH]c2ccccc12)C(=O)N[C@@H](CC(=O)O)C(=O)N[C@@H](CCCNC(=N)N)C(=O)N[C@@H](CCCCN)C(=O)N[C@@H](Cc1ccc(O)cc1)C(N)=O)C(C)C)[C@@H](C)CC)C(C)C)C(C)C [B2.16] (Ac-[Nle]VLVIVGAAWDRKY-NH2)
4	CCCC[C@H](NC(=O)[C@@H](NC(=O)[C@H](CC(C)C)NC(=O)[C@@H](NC(=O)[C@H](CCCNC(=N)N)NC(C)=O)C(C)C)C(C)C)C(=O)N[C@H](C(=O)NCC(=O)N[C@@H](C)C(=O)N[C@@H](C)C(=O)N[C@@H](Cc1c[nH]c2ccccc12)C(=O)N[C@@H](CC(=O)O)C(=O)N[C@@H](Cc1ccc(O)cc1)C(=O)N[C@@H](CCCCN)C(=O)N[C@@H](Cc1ccc(O)cc1)C(N)=O)C(C)C [B2.17] (Ac-RVLV[Nle]VGAAWDYKY-NH2)
1.8	CC(=O)N[C@@H](CCCNC(=N)N)C(=O)N[C@H](C(=O)N[C@@H](CCC(C)C)C(=O)N[C@H](C(=O)N[C@@H](CCC(C)C)C(=O)N[C@H](C(=O)NCC(=O)N[C@@H](C)C(=O)N[C@@H](C)C(=O)N[C@@H](Cc1c[nH]c2ccccc12)C(=O)N[C@@H](CC(=O)O)C(=O)N[C@@H](Cc1ccc(O)cc1)C(=O)N[C@@H](CCCCN)C(=O)N[C@@H](Cc1ccc(O)cc1)C(N)=O)C(C)C)C(C)C)C(C)C [B2.27] (Ac-RV[hLeu]V[hLeu]VGAAWDYKY-NH2)
22	CC[C@H](C)[C@H](NC(=O)[C@@H](NC(=O)[C@H](CC(C)C)NC(=O)[C@@H](NC(=O)[C@H](CCCNC(=N)N)NC(C)=O)C(C)C)C(C)C)C(=O)N[C@H](C(=O)NCC(=O)N[C@@H](C)C(=O)N[C@@H](C)C(=O)N[C@@H](CCC(C)C)C(=O)N[C@@H](CC(=O)O)C(=O)N[C@@H](Cc1ccc(O)cc1)C(=O)N[C@@H](CCCCN)C(=O)N[C@@H](Cc1ccc(O)cc1)C(N)=O)C(C)C [B2.32] (Ac-RVLVIVGAA[hLeu]DYKY-NH2)
35	CC(=O)N[C@@H](CCC(C)C)C(=O)N[C@H](C(=O)N[C@@H](CCC(C)C)C(=O)N[C@H](C(=O)NCC(=O)N[C@@H](C)C(=O)N[C@@H](C)C(=O)N[C@@H](Cc1c[nH]c2ccccc12)C(=O)N[C@@H](CC(=O)O)C(=O)N[C@@H](Cc1ccc(O)cc1)C(=O)N[C@@H](CCCCN)C(=O)N[C@@H](Cc1ccc(O)cc1)C(N)=O)C(C)C)C(C)C [B3.3] (Ac-[hLeu]V[hLeu]VGAAWDYKY-NH2)
> 50	CC[C@H](C)[C@H](NC(=O)[C@@H](NC(=O)[C@H](CC(C)C)NC(C)=O)C(C)C)C(=O)N[C@H](C(=O)NCC(=O)N(C)[C@@H](C)C(=O)N[C@@H](C)C(=O)N[C@@H](Cc1c[nH]c2ccccc12)C(=O)N[C@@H](CC(=O)O)C(=O)N[C@@H](Cc1ccc(O)cc1)C(=O)N[C@@H](CCCCN)C(=O)N(C)[C@@H](Cc1ccc(O)cc1)C(N)=O)C(C)C [B3.10] (Ac-LVIVG[NMeA]AWDYK[NMeY]-NH2)
> 5	CC(=O)N[C@@H](CCC(C)C)C(=O)N[C@H](C(=O)N[C@@H](CCC(C)C)C(=O)N[C@H](C(=O)NCC(=O)N[C@@H](C)C(=O)N[C@@H](C)C(=O)N[C@@H](Cc1c[nH]c2ccccc12)C(=O)N[C@@H](CC(=O)O)C(=O)N[C@@H](CCCNC(=N)N)C(=O)N[C@@H](CCCCN)C(=O)N[C@@H](Cc1ccc(O)cc1)C(N)=O)C(C)C)C(C)C [B3.20] (Ac-[hLeu]V[hLeu]VGAAWDRKY-NH2)
> 5	CC(=O)N[C@@H](CCC(C)C)C(=O)N[C@H](C(=O)N[C@@H](Cc1c[nH]c2ccccc12)C(=O)N[C@H](C(=O)NCC(=O)N[C@@H](C)C(=O)N[C@@H](C)C(=O)N[C@@H](Cc1c[nH]c2ccccc12)C(=O)N[C@@H](CC(=O)O)C(=O)N[C@@H](CCCNC(=N)N)C(=O)N[C@@H](CCCCN)C(=O)N[C@@H](Cc1ccc(O)cc1)C(N)=O)C(C)C)C(C)C [B3.21] (Ac-[hLeu]VWVGAAWDRKY-NH2)
> 5	CC[C@H](C)[C@H](NC(=O)[C@@H](NC(=O)[C@H](CC(C)C)NC(C)=O)C(C)C)C(=O)N[C@H](C(=O)NCC(=O)N[C@@H](C)C(=O)N[C@@H](CCCN)C(=O)N[C@@H](Cc1c[nH]c2ccccc12)C(=O)N[C@@H](CC(=O)O)C(=O)N[C@@H](Cc1ccc(O)cc1)C(=O)N[C@@H](CCCCN)C(=O)N[C@@H](Cc1ccc(O)cc1)C(N)=O)C(C)C [B3.22] (Ac-LVIVGA[Orn]WDYKY-NH2)
> 5	CC(=O)N[C@@H](CCC(C)C)C(=O)N[C@H](C(=O)N[C@@H](Cc1c[nH]c2ccccc12)C(=O)N[C@H](C(=O)NCC(=O)N[C@@H](C)C(=O)N[C@@H](CCCN)C(=O)N[C@@H](Cc1c[nH]c2ccccc12)C(=O)N[C@@H](CC(=O)O)C(=O)N[C@@H](CCCNC(=N)N)C(=O)N[C@@H](CCCCN)C(=O)N[C@@H](Cc1ccc(O)cc1)C(N)=O)C(C)C)C(C)C [B3.23] (Ac-[hLeu]VWVGA[Orn]WDRKY-NH2)
> 5	CCCC[C@H](NC(C)=O)C(=O)N[C@H](C(=O)N[C@H](C(=O)N[C@H](C(=O)NCC(=O)N[C@@H](C)C(=O)N[C@@H](C)C(=O)N[C@@H](Cc1c[nH]c2ccccc12)C(=O)N[C@@H](CC(=O)O)C(=O)N[C@@H](Cc1ccc(O)cc1)C(=O)N[C@@H](CCCCN)C(=O)N[C@@H](Cc1ccc(O)cc1)C(N)=O)C(C)C)[C@@H](C)CC)C(C)C [B4.1] (Ac-[Nle]VIVGAAWDYKY-NH2)
> 5	CCCC[C@H](N)C(=O)N[C@H](C(=O)N[C@H](C(=O)N[C@H](C(=O)NCC(=O)N[C@@H](C)C(=O)N[C@@H](C)C(=O)N[C@@H](Cc1c[nH]c2ccccc12)C(=O)N[C@@H](CC(=O)O)C(=O)N[C@@H](Cc1ccc(O)cc1)C(=O)N[C@@H](CCCCN)C(=O)N[C@@H](Cc1ccc(O)cc1)C(=O)O)C(C)C)[C@@H](C)CC)C(C)C [B4.2] (H-[Nle]VIVGAAWDYKY-OH; N-terminus and C-terminus assumed)
> 5	CCCC[C@H](NC(C)=O)C(=O)N[C@H](C(=O)N[C@H](C(=O)N[C@H](C(=O)NCC(=O)N[C@@H](C)C(=O)N[C@@H](C)C(=O)N[C@@H](Cc1c[nH]c2ccccc12)C(=O)N[C@@H](CC(=O)O)C(=O)N[C@@H](CCCNC(=N)N)C(=O)N[C@@H](CCCCN)C(=O)N[C@@H](Cc1ccc(O)cc1)C(N)=O)C(C)C)[C@@H](C)CC)C(C)C [B4.3] (Ac-[Nle]VIVGAAWDRKY-NH2)
